# Measured values as given in paper PMC3754837 (Neuropharmacology, 2013).
# Key:
# [1] = target: T1, m5-HT2C (C57Bl/6 mouse 5-HT2C-VNV receptor) (Mus musculus, UniProt P34968, I157V/I161V); assay: [3H]-inositol phosphate accumulation; format: cell-based
# T1 sequence (P34968 33-459 I157V/I161V): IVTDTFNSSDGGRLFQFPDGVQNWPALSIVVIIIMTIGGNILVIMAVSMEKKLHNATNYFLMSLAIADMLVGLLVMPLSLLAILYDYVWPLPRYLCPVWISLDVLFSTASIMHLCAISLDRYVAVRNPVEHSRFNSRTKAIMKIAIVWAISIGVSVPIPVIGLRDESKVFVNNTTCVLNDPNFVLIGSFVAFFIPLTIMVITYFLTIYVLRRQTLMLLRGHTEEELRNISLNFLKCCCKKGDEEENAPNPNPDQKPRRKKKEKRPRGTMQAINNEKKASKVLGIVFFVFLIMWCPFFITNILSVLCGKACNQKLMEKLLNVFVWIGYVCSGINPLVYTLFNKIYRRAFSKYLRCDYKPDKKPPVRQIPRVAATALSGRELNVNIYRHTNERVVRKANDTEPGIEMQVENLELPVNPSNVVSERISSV
# [2] = target: T2, m5-HT2A (C57Bl/6 mouse 5-HT2A receptor) (Mus musculus, UniProt P35363); assay: [3H]-ketanserin competition, HEK-293 membranes; format: binding
# [3] = target: T3, h5-HT2C (human 5-HT2C-INI receptor) (Homo sapiens, UniProt P28335); assay: biochemical; format: binding
# T3 sequence (P28335 33-458): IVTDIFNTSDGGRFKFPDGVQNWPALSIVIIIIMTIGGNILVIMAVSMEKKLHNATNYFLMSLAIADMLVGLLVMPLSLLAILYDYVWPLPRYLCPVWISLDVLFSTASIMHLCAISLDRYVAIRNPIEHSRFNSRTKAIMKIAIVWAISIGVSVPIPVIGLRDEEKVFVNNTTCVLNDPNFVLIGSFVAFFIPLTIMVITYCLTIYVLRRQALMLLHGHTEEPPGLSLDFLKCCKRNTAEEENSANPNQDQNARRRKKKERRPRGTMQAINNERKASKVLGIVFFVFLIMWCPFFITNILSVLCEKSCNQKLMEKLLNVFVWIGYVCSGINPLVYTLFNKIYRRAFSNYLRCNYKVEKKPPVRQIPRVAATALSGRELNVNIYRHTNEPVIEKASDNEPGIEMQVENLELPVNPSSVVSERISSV
# [4] = target: T2, m5-HT2A (C57Bl/6 mouse 5-HT2A receptor); assay: [3H]-inositol phosphate accumulation; format: cell-based
# [5] = target: T1, m5-HT2C (C57Bl/6 mouse 5-HT2C-VNV receptor); assay: [3H]-mesulergine competition, HEK-293 membranes; format: binding
# [6] = target: T3, h5-HT2C (human 5-HT2C-INI receptor); assay: [3H]-inositol phosphate accumulation; format: cell-based
# [7] = target: T4, h5-HT2A (human 5-HT2A receptor) (Homo sapiens, UniProt P28223); assay: [3H]-ketanserin competition, HEK-293 membranes; format: binding
# [8] = target: T4, h5-HT2A (human 5-HT2A receptor); assay: [3H]-inositol phosphate accumulation; format: cell-based
# [9] = target: T2, m5-HT2A (C57Bl/6 mouse 5-HT2A receptor); assay: saturation radioligand binding, HEK-293 membranes
# [10] = target: T1, m5-HT2C (C57Bl/6 mouse 5-HT2C-VNV receptor); assay: saturation radioligand binding, HEK-293 membranes
# T2 sequence (P35363 whole entry): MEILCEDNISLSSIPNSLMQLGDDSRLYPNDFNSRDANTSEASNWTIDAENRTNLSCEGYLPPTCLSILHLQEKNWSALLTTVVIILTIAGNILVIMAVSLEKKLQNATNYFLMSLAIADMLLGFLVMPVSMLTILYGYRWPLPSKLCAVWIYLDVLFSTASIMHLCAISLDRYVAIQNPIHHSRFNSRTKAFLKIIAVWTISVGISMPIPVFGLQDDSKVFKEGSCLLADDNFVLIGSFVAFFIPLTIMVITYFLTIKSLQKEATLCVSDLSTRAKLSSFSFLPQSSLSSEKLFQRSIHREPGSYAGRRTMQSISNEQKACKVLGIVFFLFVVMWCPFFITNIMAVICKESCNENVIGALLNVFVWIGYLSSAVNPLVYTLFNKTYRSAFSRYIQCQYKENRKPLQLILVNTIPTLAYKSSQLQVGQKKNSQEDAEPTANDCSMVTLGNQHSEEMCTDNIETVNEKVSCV
# T4 sequence (P28223 whole entry): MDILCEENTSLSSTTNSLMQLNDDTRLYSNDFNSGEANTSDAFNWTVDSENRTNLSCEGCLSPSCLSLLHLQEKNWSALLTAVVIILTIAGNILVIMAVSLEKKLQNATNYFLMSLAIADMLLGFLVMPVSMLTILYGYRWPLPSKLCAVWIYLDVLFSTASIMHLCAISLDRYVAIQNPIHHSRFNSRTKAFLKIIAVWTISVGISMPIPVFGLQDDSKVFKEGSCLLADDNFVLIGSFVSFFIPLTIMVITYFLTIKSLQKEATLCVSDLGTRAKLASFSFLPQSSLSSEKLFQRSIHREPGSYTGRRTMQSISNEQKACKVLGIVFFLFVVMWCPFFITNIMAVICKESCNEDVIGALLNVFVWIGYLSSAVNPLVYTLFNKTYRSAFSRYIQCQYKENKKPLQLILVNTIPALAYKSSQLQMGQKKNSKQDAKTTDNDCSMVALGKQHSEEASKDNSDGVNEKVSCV
Compound,EC50 [1] [nM],Ki [2] [nM],Ki [3] [nM],EC50 [4] [nM],Ki [5] [nM],EC50 [6] [nM],Ki [7] [nM],EC50 [8] [nM],Kd [9] [nM],Kd [10] [nM]
COc1cc(CC(C)N)c(OC)cc1I (racemic) [(±)-DOI],3.4,4,19.1,2.6,46.7,5.5,,,,
CN(C)[C@H]1Cc2ccccc2[C@H](c2ccccc2)C1 [(+)-PAT],2110,332,,352,1730,,463,233,,
CN(C)[C@@H]1Cc2ccccc2[C@@H](c2ccccc2)C1 [(−)-PAT],39,116,,,53,,102,,,
"Cc1ccc([C@H]2C[C@H](N(C)C)Cc3ccccc32)cc1 [Methyl-PAT, (−)-(2S, 4R)-trans-4-(4′-methyl)-N,N-dimethylaminotetralin]",808,326,128,,868,1120,179,,,
Cn1ccc2cc3c(cc21)CCN3C(=O)Nc1cccnc1 [SB-206553],,342,,,,,676,,,
Cc1cc2c(cc1Cl)N(C(=O)Nc1ccc(Oc3cccnc3C)nc1)CC2 [SB-242084],,96,1.5,,0.1,,146,,,
O=C(c1ccc(F)cc1)C1CCN(CCn2c(=O)[nH]c3ccccc3c2=O)CC1 [[^3H]-ketanserin],,,,,,,,,0.92,
CN1C[C@@H](NS(=O)(=O)N(C)C)C[C@@H]2c3cccc4c3c(cn4C)C[C@H]21 [[^3H]-mesulergine],,,,,,,,,,2.2
